One may read the pIC50 as −log10 of the IC50, conventionally taken in molar units.

Assay [1] concerns the target T1, recombinant N-terminal MLH1 (residues 15-340) (Homo sapiens (Human), UniProt P40692). The assay is described as follows: Fluorescence polarisation assay for MLH1 (protocol for Examples 64, 76, 90 and 95). Conditions: FP probe displacement, 100 nM N-terminal MLH1, 5 nM probe compound, non-binding surface plate, read immediately. As to the method:
Fluorescence Polarisation Assay for MLH1 (Protocol for Examples 64, 76, 90 and 95)
Test compounds, as 10 mM DMSO stocks, were dispensed into a 384-well Low Flange Black Flat Bottom Polystyrene Non-binding Surface plate (Corning®, item number 3575) using a Labcyte Echo acoustic liquid handler. Test compounds were added to wells in columns 1-22 whilst DMSO was added to wells in columns 23 and 24 in order to normalise the plate. 20 μL of a 2× solution (200 nM) of recombinant N-terminal MLH1 (residues 15-340) in assay buffer (25 mM HEPES, pH 7.5, 250 mM NaCl, 10 mM MgCl2, 0.01% Triton X-100, 5 mM dithiothreitol) was added to all wells in columns 1-23 and 20 μL assay buffer was added to all wells in column 24 using an E1-ClipTip pipette (ThermoFisher). Plates were centrifuged for 1 minute at 250×g and were incubated at room temperature for 30 minutes prior to the addition of 20 μL of 2×(10 nM) 5-((5-(4-((2-(2,4-dihydroxy-5-isopropylbenzoyl)isoindolin-5-yl)methyl)piperazin-1-yl)pentyl)carbamoyl)-2-(6-(dimethylamino)-3-(dimethyliminio)-3H-xanthen-9-yl)benzoate in assay buffer (prepared from a 1 mM DMSO stock) with an E1-ClipTip pipette (ThermoFisher). The final concentration of N-terminal MLH1 was 100 nM and the final concentration of the probe compound was 5 nM. Compound plates were centrifuged for 1 minute at 250 xg for 1 minute and immediately read on a PheraStar FSX (fitted with 384-well aperture spoon and 590 675 675 FP optic module). The gain and focus were adjusted before each plate was read so that the polarisation of a no enzyme control (column 24) was equal to 35 mP. Data were normalised against the no inhibitor controls (column 23) and no enzyme controls (column 24).
Background: Polarisation of emitted light reports the rotation of a fluorescent probe.

In assay [2] the target is recombinant N-terminal PMS2 (residues 1-365) (Homo sapiens (Human), UniProt P54278). The assay is described as follows: Fluorescence polarisation assay for PMS2. The class given is binding. The conditions noted are these: FP probe displacement; 10 nM N-terminal PMS2, 5 nM probe compound, read after 1 hour. In short, it runs like this: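 Competitive fluorescence polarisation with 10 nM N-terminal PMS2 and 5 nM final rhodamine-labelled resorcinol probe. Compound is pre-incubated with protein 30 min at room temperature, then probe added and read after 1 h. Values are normalised to no-inhibitor and no-enzyme controls.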

Assay [3] concerns the target T1, recombinant N-terminal MLH1 (residues 15-340). The assay is described as follows: Fluorescence polarisation assay for MLH1 (protocol for all Examples except Examples 64, 76, 90 and 95). The class given is binding. The conditions noted are these: FP probe displacement; 100 nM N-terminal MLH1, 5 nM probe compound, read after 15 minutes; all Examples except 64, 76, 90 and 95. A digest of the protocol: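 N-terminal MLH1 (100 nM final) preincubated with compounds 30 min at room temperature, then rhodamine-labelled resorcinol probe added (5 nM final); fluorescence polarisation read after 15 min. Signal normalised to no-inhibitor and no-enzyme controls; serial dilutions for potency, single concentration for screening.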

The structures appear in SMILES notation. pIC50: −log10 of the molar value.

Chain of recombinant N-terminal PMS2 (residues 1-365) (P54278 1-365): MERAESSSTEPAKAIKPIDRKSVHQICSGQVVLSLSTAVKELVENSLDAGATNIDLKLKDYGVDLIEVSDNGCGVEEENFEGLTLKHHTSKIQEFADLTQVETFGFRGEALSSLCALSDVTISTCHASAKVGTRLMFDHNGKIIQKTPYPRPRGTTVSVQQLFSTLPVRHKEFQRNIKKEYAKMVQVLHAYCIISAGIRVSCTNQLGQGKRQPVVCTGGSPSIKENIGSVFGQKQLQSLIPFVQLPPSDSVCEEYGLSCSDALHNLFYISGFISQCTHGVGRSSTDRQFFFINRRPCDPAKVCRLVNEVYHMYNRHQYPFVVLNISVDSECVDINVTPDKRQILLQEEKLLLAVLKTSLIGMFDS
T1 sequence (P40692 15-340): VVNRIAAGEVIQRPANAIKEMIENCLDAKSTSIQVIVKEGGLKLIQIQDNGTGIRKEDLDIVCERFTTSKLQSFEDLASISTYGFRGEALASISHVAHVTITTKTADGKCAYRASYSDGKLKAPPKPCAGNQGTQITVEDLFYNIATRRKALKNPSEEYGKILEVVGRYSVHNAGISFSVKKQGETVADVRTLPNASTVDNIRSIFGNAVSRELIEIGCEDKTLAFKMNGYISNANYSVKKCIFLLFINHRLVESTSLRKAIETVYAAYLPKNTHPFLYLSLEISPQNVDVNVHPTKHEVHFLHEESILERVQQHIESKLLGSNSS

As for `Cc1c(O)cc(O)c(C(=O)N2Cc3ccccc3C[C@@H]2CO)c1OCc1ccccc1` [Example 64, (R)-(2-(benzyloxy)-4,6-dihydroxy-3-methylphenyl)(3-(hydroxymethyl)-3,4-dihydroisoquinolin-2(1H)-yl)methanone], the pIC50 in assay [1] is below 5.00; in assay [2], 5.00 to 6.00.

For the compound `Cc1c(O)cc(O)c(C(=O)N2Cc3cccc(CN4CCOCC4)c3C2)c1OCc1ccccc1` [Example 76, (2-(Benzyloxy)-4,6-dihydroxy-3-methylphenyl)(4-(morpholinomethyl)isoindolin-2-yl)methanone], the results for the pIC50 in assay [1] and in assay [2] were below 5.00 and 5.00 to 6.00, respectively.

For the compound `CC(=O)Nc1cccc2c1CN(C(=O)c1c(O)cc(O)c(C)c1OCc1ccccc1)C2` [Example 87, N-(2-(2-(benzyloxy)-4,6-dihydroxy-3-methylbenzoyl)isoindolin-4-yl)acetamide], the negative-log IC50 (pIC50) in assay [3] is below 5.00; in assay [2], above 6.00.

On to `Cc1c(O)cc(O)c(C(=O)N2Cc3cccc(OC4CCOC4)c3C2)c1OCc1ccccc1` (stereo not shown) [Example 88], for which the pIC50 is below 5.00 in assay [3] and above 6.00 in assay [2].

Take `Cc1c(O)cc(O)c(C(=O)N2Cc3cccc(OCC4CNC4)c3C2)c1OCc1ccccc1` [Example 89, (4-(Azetidin-3-yl methoxy)isoindolin-2-yl) (2-(benzyloxy)-4,6-dihydroxy-3-methylphenyl) methanone]: the negative logarithm of the IC50 (pIC50) in assay [3] is below 5.00; in assay [2], above 6.00.

With `Cc1c(O)cc(O)c(C(=O)N2Cc3cccc(OCc4cncnc4)c3C2)c1OCc1ccccc1` [Example 90, (2-(Benzyloxy)-4,6-dihydroxy-3-methylphenyl)(4-(pyrimidin-5-ylmethoxy)isoindolin-2-yl)methanone], the pIC50 is below 5.00 in assay [1] and above 6.00 in assay [2].

For the compound `Cc1c(O)cc(O)c(C(=O)N2Cc3cccc(N4CC(C#N)C4)c3C2)c1OCc1ccccc1` [Example 91, 1-(2-(2-(Benzyloxy)-4,6-dihydroxy-3-methylbenzoyl)isoindolin-4-yl)azetidine-3-carbonitrile], the values for the pIC50 in assay [3] and in assay [2] were below 5.00 and above 6.00, respectively.

As for `COc1c(C)c(O)cc(O)c1C(=O)N1Cc2ccc(CN3CCN(C)CC3)cc2C1` [Example 92, (4,6-Dihydroxy-2-methoxy-3-methylphenyl)(5-((4-methylpiperazin-1-yl)methyl)isoindolin-2-yl)methanone], the results for the pIC50 in assay [3] and in assay [2] were below 5.00 and above 6.00, respectively.

Take `CCOc1c(C)c(O)cc(O)c1C(=O)N1Cc2ccc(CN3CCN(C)CC3)cc2C1` [Example 93, (2-Ethoxy-4,6-dihydroxy-3-methylphenyl)(5-((4-methylpiperazin-1-yl)methyl)isoindolin-2-yl)methanone]: the pIC50 in assay [3] is below 5.00; in assay [2], above 6.00.

With `Cc1c(O)cc(O)c(C(=O)N2Cc3ccc(CN4CCN(C)CC4)cc3C2)c1OCC1CCCCC1` [Example 94, (2-(Cyclohexylmethoxy)-4,6-dihydroxy-3-methylphenyl)(5-((4-methylpiperazin-1-yl)methyl)isoindolin-2-yl)methanone], the pIC50 in assay [3] is below 5.00; in assay [2], above 6.00.

Turning to `Cc1c(O)cc(O)c(C(=O)N2Cc3ccc(CN4CCN(C)CC4)cc3C2)c1OCC1CC1` [Example 95, (2-(Cyclopropylmethoxy)-4,6-dihydroxy-3-methylphenyl)(5-((4-methylpiperazin-1-yl)methyl)isoindolin-2-yl)methanone], the figures for the pIC50 in assay [1] and in assay [2] were below 5.00 and above 6.00, respectively.

For the origin of these results see patent US12552758B2, “Inhibitors of MLH1 and/or PMS2 for cancer treatment” (NeoPhore Limited, priority 2020, dated 2026).
